Experimental data published in US5076973A, “Synthesis of dolastatin 3” (Arizona Board of Regents, priority 1988, dated 1991).

Assay: Stability in solution and in storage
Type: physicochemical

CC(C)C[C@@H]1NC(=O)[C@@H]2CCCN2C(=O)[C@H](C(C)C)NC(=O)c2csc(n2)CNC(=O)c2csc(n2)[C@H](CCC(N)=O)NC1=O [dolastatin 3, Cyclo-[L-Val-L-Pro-L-Leu-L-(gln)Thz-(gly)Thz]]
Stability / decomposition in solution (in solution, especially in chloroform): tendency to undergo decomposition in solution | Stability in storage (storage of isolated natural sample): decomposed in storage
